Measurements reported in publication PMC10115881, “Disrupting the α-synuclein-ESCRT interaction with a peptide inhibitor mitigates neurodegeneration in preclinical models of Parkinson’s disease” (Nature Communications, 2023).

Assays:
A53T a-syn = A53T a-syn immunofluorescence in rat cortical neurons; type: cell-based, human; settings: primary rat cortical neurons
From the text: (§1) Pregnant rats (E17) of the Sprague-Dawley strain were purchased from Envigo. Embryos were surgically removed from the mothers and cortices dissected in Hanks Balanced salt solution (Gibco). The meninges were removed, and cells were dissociated using a papain dissociation system (Worthington) before being resuspended in Neurobasal medium A supplemented with antibiotic-antimycotic solution (Gibco), L-glutamine substitute (GlutaMAX™; Gibco) and factor B27 (Gibco). […]
(§2) After fixation, cells were permeabilized with 0.2% Triton-X-100 for 15 min, washed three times with PBS and then incubated with blocking solution (1% BSA, 22.52 mg/mL glycine, 0.1% Tween-20 in PBS or 0.4% saponin, 1% BSA, and 5% goat or donkey serum in PBS) for 1 h. […] Following another three washes with PBS, nuclei were counterstained with DAPI (ThermoFisher) and then coverslips were mounted on slides using Dako fluorescence mounting medium (Agilent) and sealed using clear nail varnish.
Confocal images of immunofluorescent staining were acquired with a Zeiss LSM880 confocal microscope equipped with 405, 488, 555, and 639 nm laser lines. All images were taken within the linear range at constant gain and pinhole settings at optimal resolution settings determined by the software. […]

CD63 = CD63 levels in HEK293 cells; type: cell-based, human; settings: A53T a-syn
Procedure: Infected or transfected cells were scraped from six-well dishes and lysed with lysis buffer (50 mM Tris-HCl pH 7.4, 1% Nonidet P-40, 150 mM NaCl, 1 mM EDTA, 1× protease inhibitor mixture (Sigma)) for 30 min at 4 °C. The insoluble pellet was removed following a 10,000 rpm spin for 5 min at 4 °C. Lysates were analyzed by SDS-PAGE/immunoblot using 4–20% Mini-PROTEAN Tris-glycine gels (Bio-Rad), transferred to polyvinylidene fluoride (PVDF) membranes, and blocked in 5% milk containing PBS-Tween-20 (0.1%) for 1 h. PVDF membranes were then incubated with specified primary antibodies followed by incubation with horseradish peroxidase-conjugated secondary antibodies (anti-mouse HRP-linked, Cell Signaling, catalog #7076, 1:5000; anti-rabbit HRP-linked, Cell Signaling, catalog #7074, 1:5000) and detected using enhanced chemiluminescence (GE Healthcare). Anti-a-syn antibody (clone 42) was obtained from BD Biosciences (catalog #610787, 1:1000). Anti-LAMP1 antibody was obtained from Abcam (catalog #ab24170, 1:500). Anti-beta-actin antibody was obtained from Cell Signaling (13E5) (catalog #4970, 1:1000). Anti-CD63 antibody was obtained from R&D Systems (catalog #MAB50482-SP, 1:1000).

[1] = tested on: endolysosomal flux in SNCA triplication fibroblasts; assay: Endolysosomal flux assay, confocal microscopy, SNCA triplication fibroblasts; type: cell-based, human
Procedure: Flux via the endolysosomal pathway was measured with the Lysosome Intracellular Activity Assay Kit which was purchased from Abcam (ab234622) and used according to the manufacturer’s instructions. The kit provides a proprietary lysosome-specific self-quenched substrate which has low background fluorescence, high signal-to-background ratio, and is pH insensitive. In the assay, the substrate is taken up by cells and acts as endocytic cargo which is degraded within an endolysosomal vesicle. Following degradation, the fluorescence signal recovered from the substrate is proportional to the intracellular lysosomal activity. The activity can be measured by fluorescence microscopy or FACS. The assay was performed with HEK293T cells or SNCA triplication fibroblasts (obtained from NINDS Human Genetics Resource Center DNA and Cell Line Repository; NINDS Repository sample number ND27760). Cells were maintained in DMEM supplemented with 10% FBS and 1% pen/strep/glutamine. Cell medium was replaced with fresh medium containing DMSO, Leupeptin, or Bafilomycin A1 and incubated for 1 h at 37 °C with 5% CO2. Self-quenched substrate was added into each condition and incubated for 1 h (HEK293T cells) or overnight (SNCA triplication fibroblasts) at 37 °C with 5% CO2. […] For HEK293T cells, cells were resuspended in PBS containing DMSO or Leupeptin and analyzed by FACS. […]

LAMP1 = LAMP1 fluorescence in rat cortical neurons; type: cell-based; settings: A53T a-syn
From the text: as §1, §2
Confocal images of primary cortical neurons, iPSC-derived dopaminergic neurons, and LAMP1 staining within the SN were processed using Imaris software (Oxford instruments). […] Mean pixel intensity per GFP^+ cell (for experiments using GFP-tagged peptides) or RFP^+ cell (for experiments using RFP-tagged peptides) was calculated for a-syn or LAMP1 signal using the software’s surfaces module. […]

For DEEIERQLKALG [PDpep1.3], the “Effect on A53T a-syn fluorescence” value (A53T a-syn) was “significant decrease in A53T a-syn fluorescence intensity”, the “Effect on CD63 levels” value (CD63) was “return of CD63” and the “Effect on endolysosomal flux in fibroblasts” value [1] was “increased endolysosomal flux”. For the same sequence, the “Effect on LAMP1, neurons” value (LAMP1) was “restored LAMP1 levels”.
